According to paper PMC7426938, “Induction of mitochondria-mediated apoptosis and suppression of tumor growth in zebrafish xenograft model by cyclic dipeptides identified from Exiguobacterium acetylicum” (Scientific Reports, 2020):

Experiments:
HT-29 cells = test: Annexin V-FITC/PI double staining, flow cytometry; format: cell-based, human; conditions: 24 h; for LA/NC Q2 late apoptotic or/and necrotic cells, fold change / Q1 + Q2 total dead cells, fold change / Q1 dead cells, fold change / Q2 + Q3 total apoptotic cells, fold change / EAC Q3 early apoptotic cells, fold change: vs CTL; for viability at 50 µM / viability at 100 µM / viability at 200 µM: Homo sapiens, HT-29, quadrant plot, read-out: Percentage of viable (Q4) cells
Experimental: The dead, necrotic, and apoptotic cells were analyzed by annexin V/PI double staining method, which was used to detect the externalization of phosphatidylserine (PS). Briefly, cells at the density of 4.5 × 10^4 cells/well were seeded into 6-well plates and treated with or without DKPs for 24 h. Subsequently, both floating and adherent cells were harvested by centrifugation at 1,500 rpm for 5 min, then re-suspended in 300 μL of 1X binding buffer, followed by 3 μL of annexin V-FITC and propidium iodide (PI) (Apoptosis Detection kit, Lead Gen, Taiwan) was added into each sample and incubated for 20 min at room temperature in the dark following the protocol recommended by the manufactures. Cells were analyzed by flow cytometry (FACS Calibur, Becton Dickinson, CA, USA) using WinMDI 2.9 software (La Jolla, CA, USA). The individual populations can be defined using quadrant gates, the number of cells in each quadrant indicated the following: Quadrant-1 (Q1): annexin V^-/PI^+ cells were considered as dead cells; Quadrant-2 (Q2): Annexin V^+/PI^+ cells were considered as late apoptotic and necrotic cells; Quadrant-3 (Q3): Annexin V^+/PI^− cells were considered as early apoptotic cells; Quadrant-4 (Q4): Annexin V^-/PI^- cells were considered as healthy. Data were analyzed using FlowJo V12.1 software (Tree stat, Stanford, CA, USA).

[1] = tested on: Cytc protein in HT-29 cells; test: Western blot, Cytc protein; format: cell-based, human; conditions: 100 μM, 24 h, whole-cell lysate, vs untreated cells
Experimental: Total protein was isolated from HT-29 cells by using lysis buffer. Cells were collected by centrifugation at 1,500 rpm for 5 min. After that, cell pellets were re-suspended with RIPA lysis buffer consisting of 1 mM protease inhibitor cocktail (PIC; Sigma-Aldrich; P8340) and lysed at […] for 1 h. After incubation, the protein was obtained by centrifugation at 13,000 × g for 15 min and kept for − 80 °C until analysis. Also, mitochondrial and cytosolic fractions were obtained by using fraction lysis buffer as described previously[50] with minor modifications. Lysed cells were kept in ice for 10 min and then cells were triturated by a 27 gauge syringe (25 strokes) to become homogeneous followed by centrifugation at 13,000 × g for 30 min. The collected supernatant was the cytosolic fraction. After the pellet was washed with lysis buffer and it was dissolved in lysis buffer for protein quantification. Protein concentration was measured by Pierce BCA protein assay kit (Thermo Scientific Laboratories, Rockford, USA) according to the manufacturer instructions. Equal amounts of proteins from all samples were separated by 10% SDS–polyacrylamide gel electrophoresis (SDS-PAGE) and electrotransferred. Polyvinylidene difluoride (PVDF) membrane was blocked with 5% skimmed milk for 1 h, followed by incubation with primary (Cytochrome-c: sc-13560; Bid: sc-11423; COX-IV: #4850; 1:2000; GAPDH: #3683; 1:10,000) and HRP-conjugated secondary (Got Anti-mouse IgG: 20102; Got anti-rabbit IgG: 20202: 1:10,000) antibodies against specific proteins. The protein signals were detected by Enhanced Chemiluminescence (ECL) detection kit (Amersham Piscataway, NJ, USA). The protein expression levels were analyzed by measuring the intensity of the band from scanned films using Image-J software. GAPDH and COX-IV served as a housekeeping protein to normalize the expression levels.

[2] = tested on: Colorectal cancer HT-29 cells; test: MTT cell viability assay, HT-29; format: cell-based; conditions: Homo sapiens; for viability at 125 µM: 24 h treatment, read-out: relative percentage viability of HT-29 cells; for IC50: 24 h, MTT, read-out: HT-29 cells inhibitory (IC50) dose
Experimental: Human colorectal cancer (HT-29) and mouse embryonic fibroblast (3T3) cells were obtained from the American Type Culture Collection Centre (ATCC, VA, USA). Both cells were grown in Dulbecco Modified Eagle's Medium (DMEM, HiMedia, India) supplemented with 10% heat-inactivated fetal bovine serum (FBS), penicillin (50 units/mL), and streptomycin (50 µg/mL) and were cultured at 37 °C, 5% CO2 in a humidified atmosphere.
Cytotoxicity of the identified those DKPs were determined by cell viability study with the MTT (3-(4, 5-dimethylthiazol-2yl)-2, 5-diphenyltetrazolium bromide) reduction assay[49]. Briefly, 1.5 × 10^4 cells/well (HT-29) and 1.7 × 10^4 cells/well (3T3) cells were seeded into 96-well plates. They were incubated for 24 h at 37 °C with 5% CO2 and 95% relative humidity atmosphere. After 24 h, identified DKPs were added different concentrations (12.5 to 200 µM) into culture media in triplicates and re-incubated under the same culture conditions mentioned above. The final concentration of DMSO solution was 0.25% in the cells served as a negative control. Then culture media was removed from the plates, and 100 μL of freshly prepared MTT solution in serum-free medium (5 mg/mL) was added to each well and further incubated for 4 h. After that, 150 μL of DMSO solution was added under dark conditions and kept for 30 min at room temperature. The absorbance of the formazan product was measured at 595 nm in the microplate reader (Imark, Biorad). The percentage viability of the cells was measured by using the formula: Cell viability (%) = [(test/control) × 100)].
Results were expressed as mean ± standard deviation (SD). Data were analyzed one-way analysis of variance (ANOVA), followed by Student’s two-tailed t-test for comparison between two groups and Dunnett’s t-test was used when the data involved three or more groups. A value of p < 0.05 was considered statistically significant. All statistical analyses and inhibitory concentration (IC50) were determined by graph-pad prism statistical software (San Diego, CA, USA).

Row | Compound | LA/NC Q2 late apoptotic or/and necrotic cells, fold change (HT-29 cells; 50 μM) [fold] | Q1 + Q2 total dead cells, fold change (HT-29 cells; 50 μM) [fold] | Q1 dead cells, fold change (HT-29 cells; 50 μM) [fold] | Q2 + Q3 total apoptotic cells, fold change (HT-29 cells; 50 μM) [fold] | LA/NC Q2 late apoptotic or/and necrotic cells, fold change (HT-29 cells; 100 μM) [fold] | Q1 + Q2 total dead cells, fold change (HT-29 cells; 100 μM) [fold] | Q1 dead cells, fold change (HT-29 cells; 100 μM) [fold] | Q2 + Q3 total apoptotic cells, fold change (HT-29 cells; 100 μM) [fold] | LA/NC Q2 late apoptotic or/and necrotic cells, fold change (HT-29 cells; 200 μM) [fold] | Q1 + Q2 total dead cells, fold change (HT-29 cells; 200 μM) [fold] | Q1 dead cells, fold change (HT-29 cells; 200 μM) [fold] | Q2 + Q3 total apoptotic cells, fold change (HT-29 cells; 200 μM) [fold] | viability at 50 µM (HT-29 cells; 50 μM) [%] | viability at 100 µM (HT-29 cells; 100 μM) [%] | viability at 200 µM (HT-29 cells; 200 μM) [%] | Cytc protein expression up-regulation [1] [fold] | viability at 125 µM [2] [%] | IC50 [2] [µM] | EAC Q3 early apoptotic cells, fold change (HT-29 cells; 50 μM) [fold] | EAC Q3 early apoptotic cells, fold change (HT-29 cells; 100 μM) [fold] | other results
1 | CC(C)C[C@@H]1NC(=O)[C@@H]2CCCN2C1=O [DKP-1, cyclo (L-Pro-L-Leu)] | 2.3 | 1.7 | 1.5 | 2.3 | 2.6 | 3.0 | 3.1 | 3.6 | 9.9 | 3.3 | 1.1 | 11.4 | 83.3 | 69.7 | 56.3 | 1.21 | 36.3 ± 5.08 | 100 | – | – | –
2 | CC(C)[C@@H]1NC(=O)[C@@H]2CCCN2C1=O [DKP-2, cyclo (L-Pro-L-Val)] | 2.5 | 1.7 | 1.5 | 2.7 | 3.5 | 3.1 | 3.0 | 3.9 | 11.2 | 3.5 | 1.2 | 11.0 | 79.3 | 64.2 | 52.5 | – | 42.3 ± 2.25 | 118 | 3.0 | 4.5 | EAC Q3 early apoptotic cells, fold change (HT-29 cells; 200 μM): 10.6 fold
3 | O=C1N[C@@H](Cc2ccccc2)C(=O)N2CCC[C@@H]12 [DKP-3, cyclo (L-Pro-L-Phe)] | 10.5 | 3.3 | 1.7 | 12.7 | 14.9 | 3.8 | 1.4 | 15.9 | 15.6 | 3.8 | 1.3 | 18.1 | 55.8 | 50 | 45.4 | 1.45 | 34.7 ± 4.03 | 85.2 | 16.5 | 17.4 | EAC Q3 early apoptotic cells, fold change (HT-29 cells; 200 μM): 22.3 fold
4 | O=C1N[C@@H](Cc2ccc(O)cc2)C(=O)N2CCC[C@@H]12 [DKP-4, cyclo (L-Pro-L-Tyr)] | 8.4 | 3.0 | 1.5 | 12.6 | 14.6 | 3.9 | 1.0 | 15.9 | 18.0 | 5.5 | 2.1 | 15.5 | 57.6 | 52 | 46.5 | 1.85 | 42.1 ± 2.94 | 98 | 20.5 | 18.4 | EAC Q3 early apoptotic cells, fold change (HT-29 cells; 200 μM): 10.8 fold
